Laboratory results as given in patent US5510385A, “Pharmaceutical compositions containing the salts of S(+)-2-(4-isobutylphenyl)propionic acid with basic aminoacids” (priority 1993, dated 1996).
Counter-ions that a name gives are not always drawn.

Assays:
[1] = in words, versus Ibuprofen (and, EP 424028, Ibuprofen salts and S(+)-Ibuprofen); cited from earlier work
[2] = S(+)-Ibuprofen plasma concentrations and bioavailability parameters after single oral dose, cross-over (Examples 6-10, HPLC)
Method: Each subject was apparently healthy, especially as lap as the Renal, hepatic and hematopoietic functions were concerned.
For the trial, a cross-over design was adopted: each subject received both preparations in two treatment sessions carried out in two different weeks randomizing the order of the administration.
Further, samples of venous blood were withdrawn at 5, 10, 15, 30, 45, 60, 90, 120, 240 and 480 minutes after the treatment. Plasma was then prepared by centrifugation and preserved at -20° C. until the analysis.
The analytical determination of the active ingredient in the plasma samples was carried out by HPLC method as described hereinafter. Chromatographic conditions:
Apparatus: JASCO BIP-1 with U.V. detector UVI DEC-100 v
Column: Chiral AGP, 100×4.0 mm, 5 μm (Chron Tech) with a precolumn Chiral AGP 10×3.0 mm (Chron Tech) […]
The following parameters were calculated:
the area under curve of S(+)-Ibuprofen plasma concentration from time "zero" to "infinite" (AUCtot) was calculated by the following formula: AUCtot =AUCo→480 +AUC480→- wherein AUC480- =concentration at 480 minutes/Ke. and Ke =elimination constant
mean peak time (tmax), expressed as minutes, was obtained from the average of each peak time
the mean peak of maximum plasma concentration (Cmax), expressed as μg/ml, was calculated by the average of each concentration peak value.

SMILES | analgesic effect (onset and duration) [1] | increase of S(+)-Ibuprofen maximum plasma concentration over equivalent Ibuprofen salt composition ([2]; 400 mg or 300 mg of S(+)-Ibuprofen versus 800 mg or 600 mg of Ibuprofen, oral) | S(+)-Ibuprofen maximum plasma concentration (Cmax) compared with equivalent racemic Ibuprofen treatment ([2]; in words, versus reference treatment)
CC(C)Cc1ccc([C@H](C)C(=O)O)cc1 [S(+)-Ibuprofen, (S)-enantiomer of 2-(4-isobutylphenyl)propionic acid] | faster, and consequently a longer, analgesic effect than Ibuprofen |  | 
CC(C)Cc1ccc([C@H](C)C(=O)O)cc1 [S(+)-Ibuprofen arginate, salt of S(+)-Ibuprofen with L-arginine] |  | 15-20% | substantially equal
